PMC10247784, “Physiological activation of human and mouse bitter taste receptors by bile acids” (Communications Biology, 2023)

Molecular target: T1, mouse Tas2r144 (Mus musculus, UniProt Q7TQB8)
T1 construct: expressed in transfected cells; host or cells: HEK293T-Gα16gust44
Experiment: Calcium imaging assay (FLIPR), HEK293T-Gα16gust44 cells transfected with mouse Tas2r144
Type: cell-based
Procedure: This set of bile acids was chosen because of their commercial availability in high purities, their diversity within the class of bile acids and their previous detection and quantitation in human blood. Stock solutions were prepared in DMSO.
As basal growth medium for the HEK293T-Gα16gust44 cell line[17],[59] served Dulbecco’s modified eagle medium (DMEM) (Thermo Fisher Scientific, Darmstadt, Germany) supplemented with 10 % fetal bovine serum (Sigma-Aldrich, Steinheim, Germany), 2 mM L-glutamine (Sigma-Aldrich, Steinheim, Germany), 100 units/ml penicillin (Sigma Aldrich, Steinheim, Germany) and 100 µg/ml streptomycin (Sigma Aldrich, Steinheim, Germany). Growth conditions were 37 °C, 5 % CO2 and saturated air-humidity[60].
HEK293T-Gα16gust44 cells were seeded on poly-D-lysine (10 µg/ml) coated 96-well plates to reach a confluence of 40-60 % the next day. For transient transfection 150 ng of plasmid DNA containing the receptor of interest and 0.3 µl lipofectamine 2000 (Thermo Fisher Scientific, Darmstadt, Germany) per well were used and transfection took place according to the manual of lipofectamine 2000. […] The empty vector DNA (mock) was transfected as negative control[14],[41].
Cells were loaded using the calcium-sensitive fluorescent dye Fluo-4-AM (Abcam, Cambridge, Great Britain) in the presence of 2.5 mM probenecid (Sigma-Aldrich, Steinheim, Germany) the day after transfection[13],[41]. 1 h after loading, cells were washed with C1 buffer using a BioTek Cell Washer, incubated in the dark for half an hour and washed again. For automated agonist application and measurement of fluorescence changes, a FLIPR^TETRA device (Molecular Devices, San José, United States) was used. Viability of cells was tested by application of 100 nM Somatostatin 14 (Bachem, Bubendorf, Switzerland)[42].
Measured data were negative control corrected by subtracting the signal of the mock-transfected cells and exported to Microsoft Excel using the FLIPR software ScreenWorks 4.2. In Microsoft Excel software, standardization of maximum fluorescence intensities to the basal fluorescence and normalization to the buffer-only control was done to calculate the relative fluorescence changes (ΔF/F).
Initial screening experiments performed in duplicate wells were confirmed by at least one replication and representative traces were selected for display. All dose-response relationships were determined by three independent experiments (biological replicates) performed in duplicates (technical replicates). Threshold concentrations, defined as lowest substance concentrations leading to statistically significant elevated fluorescence changes in receptor-transfected cells compared with empty vector-transfected cells, were determined using SigmaPlot with Student’s t-test to evaluate statistical significance (p < 0.01).

T1 sequence (Q7TQB8 whole entry): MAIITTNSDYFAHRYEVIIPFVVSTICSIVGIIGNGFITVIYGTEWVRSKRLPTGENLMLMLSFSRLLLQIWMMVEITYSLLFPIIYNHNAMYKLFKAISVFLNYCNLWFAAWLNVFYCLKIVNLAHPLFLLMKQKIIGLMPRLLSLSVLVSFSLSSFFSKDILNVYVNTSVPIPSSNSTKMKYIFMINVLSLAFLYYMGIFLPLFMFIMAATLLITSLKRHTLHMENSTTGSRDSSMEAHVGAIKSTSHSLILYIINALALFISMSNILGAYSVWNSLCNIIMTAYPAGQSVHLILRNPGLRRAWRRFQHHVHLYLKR

Structure (SMILES): C[C@H](CCC(=O)NCCS(=O)(=O)O)[C@H]1CC[C@H]2[C@@H]3CC[C@@H]4C[C@H](O)CC[C@]4(C)[C@H]3CC[C@]12C [Taurolithocholic Acid, taurolithocholic acid]
- RLU (Time 0 s): 0 RLU
- RLU (Time 2 s): 14.6538 RLU
- RLU (Time 4 s): 0.2718 RLU
- RLU (Time 6 s): -11.922 RLU
- RLU (Time 8 s): 1.321 RLU
- RLU (Time 12 s): 10.4417 RLU
- RLU (Time 14 s): -10.556 RLU
- RLU (Time 16 s): -6.199 RLU
- RLU (Time 18 s): 24.6697 RLU
- RLU (Time 18.781 s): 60.5615 RLU
- RLU (Time 20.781 s): -19.5171 RLU
- RLU (Time 22.781 s): -4.009 RLU
- RLU (Time 24.781 s): -20.7725 RLU
- RLU (Time 26.781 s): 1.348 RLU
- RLU (Time 28.781 s): -0.7767 RLU
- RLU (Time 30.781 s): 41.688 RLU
- RLU (Time 32.781 s): 71.1245 RLU
- RLU (Time 34.781 s): 105.382 RLU
- RLU (Time 36.781 s): 151.604 RLU
- RLU (Time 38.781 s): 184.237 RLU
- RLU (Time 40.781 s): 248.501 RLU
- RLU (Time 42.781 s): 269.502 RLU
- RLU (Time 44.781 s): 268.298 RLU
- RLU (Time 46.781 s): 327.359 RLU
- RLU (Time 48.781 s): 341.375 RLU
- RLU (Time 50.781 s): 358.126 RLU
- RLU (Time 52.781 s): 372.318 RLU
- RLU (Time 54.781 s): 375.128 RLU
- RLU (Time 56.781 s): 360.867 RLU
- RLU (Time 58.781 s): 388.738 RLU
- RLU (Time 60.781 s): 413.492 RLU
- RLU (Time 62.781 s): 416.863 RLU
- RLU (Time 64.781 s): 424.583 RLU
- RLU (Time 66.781 s): 428.264 RLU
- RLU (Time 68.781 s): 426.421 RLU
- RLU (Time 70.781 s): 448.262 RLU
- RLU (Time 72.781 s): 417.687 RLU
- RLU (Time 74.781 s): 456.073 RLU
- RLU (Time 76.781 s): 430.589 RLU
- RLU (Time 78.781 s): 445.771 RLU
- RLU (Time 80.781 s): 460.032 RLU
- RLU (Time 82.781 s): 446.511 RLU
- RLU (Time 84.781 s): 409.522 RLU
- RLU (Time 86.781 s): 409.191 RLU
- RLU (Time 88.781 s): 405.957 RLU
- RLU (Time 90.781 s): 381.655 RLU
- RLU (Time 92.781 s): 387.142 RLU
- RLU (Time 94.781 s): 402.42 RLU
- RLU (Time 96.781 s): 404.326 RLU
- RLU (Time 98.781 s): 373.324 RLU
- RLU (Time 100.781 s): 389.827 RLU
- RLU (Time 102.781 s): 378.133 RLU
- RLU (Time 104.781 s): 393.124 RLU
- RLU (Time 106.781 s): 394.729 RLU
- RLU (Time 108.781 s): 385.581 RLU
- RLU (Time 110.781 s): 380.059 RLU
- RLU (Time 112.781 s): 389.586 RLU
- RLU (Time 114.781 s): 357.6 RLU
- RLU (Time 116.781 s): 386.704 RLU
- RLU (Time 118.781 s): 385.665 RLU
- RLU (Time 120.781 s): 364.459 RLU
- RLU (Time 122.781 s): 361.618 RLU
- RLU (Time 124.781 s): 373.746 RLU
- RLU (Time 126.781 s): 327.57 RLU
- RLU (Time 128.781 s): 359.155 RLU
- RLU (Time 130.781 s): 325.368 RLU
- RLU (Time 132.781 s): 293.828 RLU
- RLU (Time 134.781 s): 312.409 RLU
- RLU (Time 136.781 s): 298.284 RLU
- RLU (Time 137.578 s): 290.936 RLU
- RLU (Time 143.578 s): 296.494 RLU
- RLU (Time 149.578 s): 267.674 RLU
- RLU (Time 155.578 s): 285.393 RLU
- RLU (Time 161.578 s): 243.081 RLU
- RLU (Time 167.578 s): 210.334 RLU
- RLU (Time 173.578 s): 225.862 RLU
- RLU (Time 179.578 s): 201.092 RLU
- RLU (Time 185.578 s): 199.988 RLU
- RLU (Time 191.578 s): 157.165 RLU
- RLU (Time 197.578 s): 150.89 RLU
- RLU (Time 203.578 s): 157.65 RLU
- RLU (Time 209.578 s): 119.607 RLU
- RLU (Time 215.578 s): 114.651 RLU
- RLU (Time 221.578 s): 111.289 RLU
- RLU (Time 227.578 s): 125.554 RLU
- RLU (Time 233.578 s): 124.837 RLU
- RLU (Time 239.578 s): 148.185 RLU
- RLU (Time 245.578 s): 121.449 RLU
- RLU (Time 293.578 s): 139.355 RLU
- RLU (Time 299.578 s): 114.827 RLU
- RLU (Time 305.578 s): 107.043 RLU
- RLU (Time 311.578 s): 92.604 RLU
- RLU (Time 317.578 s): 88.3008 RLU
- RLU (Time 323.578 s): 90.2384 RLU
- RLU (Time 329.578 s): 71.9932 RLU
- RLU (Time 335.578 s): 67.9746 RLU
- RLU (Time 341.578 s): 66.5352 RLU
- RLU (Time 347.578 s): 80.5392 RLU
- RLU (Time 353.578 s): 85.9834 RLU
- RLU (Time 359.578 s): 89.3996 RLU
- Activation threshold concentration Tas2r144 (p < 0.01 vs empty vector): 3 µM
